Entries after “also recorded” stand apart in the source; their conditions may differ.
Tests used:
[1] = system: vascular endothelial cells; conditions: cited from earlier work
[2] = system: Rac protein; test: Nuclear transfer of GFP/Rac fusion protein in transformed HUVEC, observed by fluorescence microscopy; assay type: cell-based; conditions: HUVEC expressing GFP/Rac fusion protein; pitavastatin 1 μM, 15 hours stationary culture; GFP fluorescence, nuclei stained with Hoechst
Protocol: The present inventors measured the behavior of Rac protein in HUVEC with an HMG-CoA reductase inhibitor, particularly pitavastatin. For this measurement, a gene encoding a Rac/fluorescence protein GFP fusion protein was introduced into HUVEC to prepare a transformed cell expressing a GFP/Rac fusion protein. This transformed cell was cultured, and the state of Rac distributed in the cell in the presence or absence of pitavastatin was examined by observing the fluorescence of GFP. A gene encoding the whole area of a Rac translation region was introduced into a predetermined position of a commercial plasmid pEGFP-C1 for preparation of a fusion protein consisting of GFP and a desired protein, to construct a plasmid comprising the GFP-Rac gene. After HUVECs were put to a 6-well plate and then cultured overnight in EGM-2 medium. Using Fugene 6, the plasmid construct DNA prepared above was added in an amount of 0.8 μg/well to the cells. The cells were further cultured for 21 hours in EGM-2 medium, and then the fluorescence of GFP was observed under a fluorescence microscope. Six hours after the culture of HUVECs to which the plasmid construct DNA had been added was initiated, pitavastatin was added to the cells to a final concentration of 1 μM. And then the cells were subjected to stationary culture for 15 hours, fixed onto a prepared slide and observed under a fluorescence microscope. […]

In the case of O=C(O)C[C@H](O)C[C@H](O)/C=C/c1c(C2CC2)nc2ccccc2c1-c1ccc(F)cc1 [pitavastatin, (3R,5S,6E)-7-[2-cyclopropyl-4-(4-fluorophenyl)-3-quinolyl]-3,5-dihydroxy-6-heptenoic acid], the “expression of MCP-1” value [1] is given as “suppresses”, the “expression of NO synthase” value [1] is given as “promotes” and the “expression of PAI-1” value [1] is given as “suppresses”. For the same compound, the “expression of PTX3” value [1] was “suppresses”, the expression of endothelin [1] was “suppresses” and the “expression of inflammatory cytokine IL-8” value [1] was “suppresses”. For the same compound, the expression of thrombomodulin [1] was “promotes” and the “state of Rac distributed in the cell (transfer of GFP-Rac into the nucleus)” value [2] was “fluorescence of GFP was localized in a certain area of the cells; also recorded: GFP-Rac is transferred to a nucleus”.

— US8309574B2, “Nuclear transfer promoter for Rac protein and method of screening the same” (Kowa Company, Ltd., priority 2004, dated 2012)
